Results reported in publication PMC11550005, “On the function of TRAP substrate-binding proteins: Conformational variation of the sialic acid binding protein SiaP” (The Journal of Biological Chemistry, 2024).

Experiments:
[1] = target: T1, AaSiaP (TRAP N-acetylneuraminate substrate-binding protein SiaP) (Aggregatibacter actinomycetemcomitans, UniProt A0A5D0EK58); parameters: gene ACT75_01630
[2] = target: T1, AaSiaP (TRAP N-acetylneuraminate substrate-binding protein SiaP); assay: microscale thermophoresis; also crystal structure ([…] A), DSF, SAXS; parameters: gene ACT75_01630; mature chain without native signal peptide (replaced by pelB), residual N-terminal Met-Asp; strain 624, WP_005538762.1
[3] = target: T1, AaSiaP (TRAP N-acetylneuraminate substrate-binding protein SiaP); assay: microscale thermophoresis; parameters: gene ACT75_01630; mature chain without native signal peptide (replaced by pelB), residual N-terminal Met-Asp; strain 624, WP_005538762.1

T1 sequence (A0A5D0EK58 entry or part of it): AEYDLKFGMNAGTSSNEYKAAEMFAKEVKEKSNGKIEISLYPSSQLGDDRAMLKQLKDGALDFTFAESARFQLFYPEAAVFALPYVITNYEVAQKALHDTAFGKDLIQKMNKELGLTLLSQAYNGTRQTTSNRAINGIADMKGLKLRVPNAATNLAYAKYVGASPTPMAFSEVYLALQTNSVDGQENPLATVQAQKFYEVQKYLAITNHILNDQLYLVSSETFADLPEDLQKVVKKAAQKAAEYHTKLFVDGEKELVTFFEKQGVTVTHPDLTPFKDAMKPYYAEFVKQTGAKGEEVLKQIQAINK

CC(=O)O [acetate]
crystal structure (2.58 A, chains A and B); acetate from the crystallization cond [1]: Acetate makes favorable interactions with residues R127, R147, and N189 on domain II within the binding site of AaSiaP

CC(=O)N[C@H]1[C@H]([C@H](O)[C@H](O)CO)O[C@](O)(C(=O)O)C[C@@H]1O [Neu5Ac, N-acetylneuraminate]
Kd [2]: 430 nM

O=C(CO)N[C@H]1[C@H]([C@H](O)[C@H](O)CO)O[C@@](O)(C(=O)O)C[C@@H]1O [Neu5Gc, N-glycolylneuraminate]
Kd [3]: 4.4 µM
